From EPA's ToxValDB 9.5
Values after ≈ are worked out from the molar mass of the structure shown. Values joined by “and” are separate entries in the source; they are usually repeats but may differ in a detail not shown here. Equal values may be shown once.

How the values were obtained:
Mus musculus [1] = details: acute, oral
Cricetulus sp. [2] = details: duration: 5 days, oral, gavage, Hamster
Rattus norvegicus [3] = details: for LD50 / LC50: acute
Oryctolagus sp. [4] = details: for LD50: acute
Rattus norvegicus [5] = details: subchronic, duration: 90 days, M/F
Rattus norvegicus [6] = details: subchronic, oral, gavage, M/F
Mouse, Rat = details: subchronic; duration: 90 days; inhalation; intermittent; Adrenal: Lesions + Blood: Hematological effects + Kidney: Lesions + Liver: Lesions
Rattus norvegicus [7] = details: injection, subcutaneous
Homo sapiens [8] = details: clinical; oral; M; Restoration normal sexual desire, erection, ejaculation, and general well-being
Homo sapiens [9] = details: clinical; duration: 10 weeks; oral; drinking water; Cardiovascular system: Increased blood pressure
Rattus norvegicus [10] = system: Rattus norvegicus
Rattus norvegicus [11] = details: M/F
Oryctolagus sp. [12] = details: subchronic; inhalation; M/F; sedation
Mus musculus [13] = details: subchronic; duration: 13 weeks; oral; gavage; M/F; CD1; Urinary
Mus musculus [14] = details: subchronic; oral; M/F; kidney effects (renal tubular pathology, reduced kidney weight)
Cavia porcellus = details: acute, Guinea Pig
Canidae [15] = details: chronic; duration: 2 years; oral; diet; Dog Other; Liver: Histopathology
Canidae [16] = details: chronic; oral; M/F; Dog Other; histopathological liver
Rattus norvegicus [17] = test: LD0; higher = less toxic; details: acute; dermal; semiocclusive; Sprague-Dawley
Oryctolagus sp. [18] = test: LD0; higher = less toxic; details: acute, dermal, New Zealand
Rattus norvegicus [19] = test: LC100; higher = less toxic; details: acute; inhalation; Wistar
Cricetulus sp. [20] = details: subchronic; duration: 13 weeks; inhalation; intermittent; Hamster; Nasal cavity: Olfactory degeneration
[21] = subchronic, inhalation, sedation
[22] = short-term, inhalation, M, Sprague-Dawley
[23] = short-term, inhalation, New Zealand
[24] = subchronic, duration: 90 days, inhalation, Sprague-Dawley
[25] = short-term, duration: 28 days, dermal, occlusive, New Zealand

## COC(=O)CCSCCC(=O)OC [Dimethyl 3,3'-thiodipropionate]
Mus musculus [1]
  LD50: > 2000 mg/kg
Cricetulus sp. [2]; developmental
  NOAEL: 1600 mg/kg-day
Cricetulus sp. [2]; reproduction developmental, F
  NOAEL: 1600 mg/kg-day
Rattus norvegicus [3]; oral
  LD50: > 2500 mg/kg
Rattus norvegicus [3]; reproduction developmental, duration: 13 weeks, oral, gavage, Sprague-Dawley
  NOAEL: 350 mg/kg-day
Rattus norvegicus [3]; reproduction developmental, duration: 10 days, oral, gavage, F, Wistar
  NOAEL: 1600 mg/kg-day
Rattus norvegicus [3]; subchronic, duration: 13 weeks, oral, gavage, Sprague-Dawley
  NOAEL: 350 mg/kg-day
Oryctolagus sp. [4]; developmental, duration: 13 days, oral, gavage, Dutch-belted
  NOAEL: 1000 mg/kg-day

## O=[N+]([O-])c1ccccc1 [Nitrobenzene]
Rattus norvegicus [5]; inhalation, F344 / Sprague-Dawley, hematological
  LOAEL: 25.2 mg/m3
Rattus norvegicus [6]; Fischer 344, Deaths + Body Weight Changes: decrease + Food Consumption: decrease + Hematology: RBC decrease, WBC increase, , Hgb decrease, , Hct decrease…
  NOEL: < 5 mg/kg-day
Rattus norvegicus [6]; Sprague-Dawley, Deaths + Clinical Observation: Piloerection, salivation, emacation Anemia, torticollis, rotating movement, abnormal gait + Body Weight …
  NOEL: < 20 mg/kg-day
Mouse, Rat
  LOAEL: 25 mg/m3

## C[C@]12CC[C@H]3[C@@H](CCC4=CC(=O)CC[C@@]43C)[C@@H]1CC[C@@H]2O [Testosterone]
Rattus norvegicus [7]; Hershberger, duration: 7 days, Sprague-Dawley, active + Androgenic + androgenic
  NOEL: 0.1 mg/kg-day
Rattus norvegicus [7]; uterotrophic, duration: 3 days, Active
  LEL: 0.2 mg/day
Homo sapiens [8]
  NOEL: 1.7 mg/kg-day

## [Ba] [Barium]
Rattus norvegicus [5]; oral, drinking water, Fischer 344, renal
  NOAEL: 65 mg/kg-day
Homo sapiens [9]
  NOAEL: 0.21 mg/kg-day
Rattus norvegicus [10]; developmental, duration: 4 months, inhalation, intermittent, Fetus: Fetotoxicity
  NOEL: 0.8 mg/m3

## COCC(C)O (stereo unspecified) [1-Methoxy-2-propanol]
Rattus norvegicus [10]; subchronic, duration: 35 days, oral, gavage, Kidney: Histopathology + Liver: Histopathology
  NOEL: 947 mg/kg-day
Rattus norvegicus [11]; [21]
  LOAEL: 11100 mg/m3
  NOAEL: 3680 mg/m3
Oryctolagus sp. [12]
  LOAEL: 11100 mg/m3
  NOAEL: 3680 mg/m3

## c1cc2ccc3cccc4ccc(c1)c2c34 [Pyrene]
Mus musculus [13]
  NOAEL: 75 mg/kg-day
Mus musculus [14]
  LOAEL: 125 mg/kg-day
  NOAEL: 75 mg/kg-day

## O=C1OC(=O)C2CC=CCC12 (stereo unspecified) [Tetrahydrophthalic anhydride]
Cavia porcellus; oral
  LD50: 3500 mg/kg
Mus musculus [1]
  LD50: 3300 mg/kg

## CC(Oc1cc(Cl)c(Cl)cc1Cl)C(=O)O (stereo unspecified) [2-(2,4,5-Trichlorophenoxy)propionic acid]
Canidae [15]
  NOEL: 0.75 mg/kg-day
Canidae [16]
  LOAEL: 2.5 mg/kg-day
  NOEL: 0.75 mg/kg-day

## O=[N+]([O-])C(CO)(CO)CO [2-(Hydroxymethyl)-2-nitro-1,3-propanediol]
Rattus norvegicus [3]; Inhalation, Sprague-Dawley
  LC50: 2.4 µg/mL (≈ 15.9 µM)
Rattus norvegicus [3]; inhalation, particle, Sprague-Dawley
  LC50: > 2.12 µg/mL
Rattus norvegicus [3]; oral, gavage
  LD50: ≥ 990 mg/kg and ≤ 1000 mg/kg
Rattus norvegicus [17]
  LD0: > 5000 mg/kg
Oryctolagus sp. [18]; semiocclusive
  LD0: > 2000 mg/kg

## CC(C)[N+](=O)[O-] [2-Nitropropane]
Mus musculus [1]; CD1
  LD50: 393 mg/kg and ≥ 346 mg/kg and ≤ 446 mg/kg
Rattus norvegicus [3]; inhalation, Sprague-Dawley
  LC50: 2620 mg/m3 and 1460 mg/m3
Rattus norvegicus [3]; inhalation, Wistar
  LC50: ≥ 12.1 µg/mL and ≤ 14.4 µg/mL
Rattus norvegicus [3]; developmental, duration: 15 days, injection, Intraperitoneal, Sprague-Dawley
  NOAEL: < 170 mg/kg-day
Rattus norvegicus [3]; reproduction developmental, duration: 15 days, injection, Intraperitoneal, F, Sprague-Dawley
  NOAEL: 170 mg/kg-day
Rattus norvegicus [3]; [22]
  LOAEL: 754 mg/m3
  NOAEL: 98.4 mg/m3
Oryctolagus sp. [4]; dermal
  LD50: > 200 mg/kg
Oryctolagus sp. [4]; dermal, New Zealand
  LD50: > 2000 mg/kg
Oryctolagus sp. [4]; oral, gavage
  LD50: ≥ 500 mg/kg and ≤ 750 mg/kg
Oryctolagus sp. [4]; [23]
  LOAEL: 754 mg/m3
  NOAEL: 98.4 mg/m3
Rattus norvegicus [19]
  LC100: 53600 mg/m3
Rattus norvegicus [10]; chronic, duration: 22 months, inhalation, intermittent, Liver: Lesions
  LOAEL: 78 mg/m3
Rattus norvegicus [11]; chronic, inhalation, liver focal vacuolization and nodules
  LOAEL: 78 mg/m3

## CSSC [Methyl disulfide]
Rattus norvegicus [3]; inhalation, Sprague-Dawley
  LC50: 3100 mg/m3
Rattus norvegicus [3]; oral, gavage, Sprague-Dawley
  LD50: ≥ 290 mg/kg and ≤ 500 mg/kg
Rattus norvegicus [3]; oral, gavage, Wistar
  LD50: 190 mg/kg
Rattus norvegicus [3]; developmental, duration: 10 days, inhalation, Crl:CD(SD) BR
  NOAEL: 57.8 mg/m3
Rattus norvegicus [3]; reproduction developmental, duration: 10 days, inhalation, F, Crl:CD(SD) BR
  NOAEL: < 38.5 mg/m3
Rattus norvegicus [3]; [24]
  LOAEL: 193 mg/m3
  NOAEL: 38.5 mg/m3
Oryctolagus sp. [4]; [25]
  LOAEL: 106 mg/kg-day
  NOAEL: 10.6 mg/kg-day
Oryctolagus sp. [18]
  LD0: ≥ 2000 mg/kg

## CCCCCCCC/C=C\CCCCCCCC(=O)O [Oleic acid]
Cavia porcellus; dermal
  LD50: > 3000 mg/kg

## O=Cc1ccco1 [Furfural]
Rattus norvegicus [6]; duration: 13 weeks, Fischer 344, Deaths + Absolute Organ Weight: Kidney increase, Liver increase + Relative Organ Weight: Kidney increase, Liver increase + Histopathology: …
  NOEL: < 11 mg/kg-day
Cricetulus sp. [20]
  NOAEL: 78.6 mg/m3
Rattus norvegicus [10]; subchronic, duration: 13 weeks, oral, gavage, Liver: Hepatotoxicity
  LOAEL: 7.9 mg/kg-day
Rattus norvegicus [11]; subchronic, oral, hepatocellular vacuolization
  LOAEL: 11 mg/kg-day
